Biological target: T1, bacterial cell enzyme (E. coli expressing CH polymerase K4CP) (Escherichia coli, UniProt Q8L0V4)
T1 construct: His tag (from vector pTrcHis); expressed in transfected cells; host or cells: E. coli transformed with the pTrcHis-K4CP vector and induced with IPTG; The whole-cell pellet was used as the enzyme; TOP10 is named only as the preferred host
Assay: Incorporation of [3H]GalNAc into the polymer (CH) fraction by the bacterial cell enzyme
Type: biochemical, Escherichia coli K4 strain
Settings: for influence of surfactant on incorporation of [3H]GalNAc: FIG. 4
Experimental: According to the method described in Japanese Patent Application No. 2003-199583, the gene of the CH polymerase (K4CP) enzyme derived from E. coli and an expression vector were prepared. the plasmid pTrcHis (manufactured by Invitrogen Corporation) was used as the expression vector. The expression vector obtained by the method was introduced to E. coli. The E. coli was cultured at 37° C. in an ampicillin-containing LB medium until absorbance of the culture medium reached about 0.6 at a wavelength of 600 nm. β-isopropylthiogalactoside (IPTG), which is an expression induction molecule, was added to the culture medium in such an amount that attains a final concentration of 1 mM, and culture was further performed at 37° C. for 3 hours to induce an enzyme expression. 1 ml of the culture medium was taken and transferred to a centrifugation tube to undergo centrifugation at 10,000 rpm for 1 minute. After the supernatant was discarded, a cell precipitate was used a bacterial cell enzyme. Further, the cell precipitate can maintain the enzymatic activity at least for 1 year by storing at −80° C.
To the bacterial cell enzyme obtained in Example 1, 50 mM of Tris-HCl (pH of 7.2) buffer solution containing 20 mM of MnCl2, 150 mM of NaCl, 0.1 nmol of CH6, 3 nmol of UDP-GalNAc, 0.2 μCi of UDP-[^3H] GalNAc, and 3 nmol of UDP-GlcUA, and a surfactant (Nymeen S-215; manufactured by NOF CORPORATION) at a final concentration of 0, 0.1, 0.2, 0.4, 1.0, or 2.0% was added and suspended. Each of the suspensions was shaken at 30° C. for 15 hours. After the reaction, each of the suspensions was heat-treated for 10 minutes in boiling water, and then centrifuged at 15,000 rpm for 5 minutes to remove a precipitate. Each of the supernatants was subjected to gel filtration using Superdex peptide HR 10/30 column (manufactured by Amersham Biosciences Co., Ltd.). The sugar chains in each of the eluted solutions were detected based on the absorbance at 225 nm.
An eluted fraction which corresponds to the absorption peak residing in a polymer region was obtained, and an incorporation of [^3H] GalNAc was detected. The incorporation was shown by the ratio (%) of the incorporated radioactivity with respect to the total radioactivity as 100%.
(§1) The same test as Example 3 was performed using various kinds of surfactants each having a final concentration of 0.4% to examine how various kinds of surfactants influence on the incorporation of [^3H] GalNAc. As an enzyme, the bacterial cell enzyme produced in Example 1 was used. Further, the surfactants used are described below.
as §1, with “organic solvents” for “surfactants”, “1%” for “0.4%”, “the influence of the” for “how”, “organic solvents” for “surfactants influence”, “prepared” for “produced”
The incorporation was shown by the ratio (%) of the incorporated radioactivity with respect to the total radioactivity of [^3H] GalNAc used as 100%. It should be noted that the term “without organic solvent” in FIG. 5 means a case where the bacterial cell enzyme was reacted in the absence of organic solvents.
Besides, in order to examine the concentration dependency in the case of using chloroform as an organic solvent, the same test as Example 3 was performed by setting chloroform concentration in the enzyme reaction solution to 0, 0.5, 1.0, 2.0, 5.0, or 10.0%, thereby the amount of incorporation of [^3H] GalNAc in the polymer fraction was examined.

[1] = surfactant final concentration 0.4%

T1 sequence (Q8L0V4 whole entry): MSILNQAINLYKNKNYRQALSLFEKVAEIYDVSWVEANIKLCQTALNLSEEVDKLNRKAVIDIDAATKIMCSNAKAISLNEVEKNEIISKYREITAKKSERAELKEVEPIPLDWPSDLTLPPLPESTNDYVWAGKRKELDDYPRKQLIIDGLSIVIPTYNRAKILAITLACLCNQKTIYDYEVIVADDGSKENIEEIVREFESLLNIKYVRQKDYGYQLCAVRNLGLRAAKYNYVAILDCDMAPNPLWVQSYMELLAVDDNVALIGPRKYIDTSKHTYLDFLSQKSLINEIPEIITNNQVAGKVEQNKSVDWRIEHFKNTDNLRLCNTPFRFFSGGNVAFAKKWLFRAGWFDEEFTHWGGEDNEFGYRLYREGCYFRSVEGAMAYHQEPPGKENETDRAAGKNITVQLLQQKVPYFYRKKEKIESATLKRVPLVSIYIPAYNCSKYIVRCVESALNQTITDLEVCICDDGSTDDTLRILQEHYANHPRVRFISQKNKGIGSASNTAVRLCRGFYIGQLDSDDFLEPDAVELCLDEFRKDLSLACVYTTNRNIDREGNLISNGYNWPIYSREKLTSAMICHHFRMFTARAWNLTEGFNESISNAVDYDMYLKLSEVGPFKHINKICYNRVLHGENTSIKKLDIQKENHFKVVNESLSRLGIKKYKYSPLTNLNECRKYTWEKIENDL

Molecule: Sucrose monocaprate
- influence of surfactant on incorporation of [3H]GalNAc [1]: particularly efficient incorporation

Molecule: CCCCCCCCCS[C@@H]1O[C@H](CO)[C@@H](O[C@H]2O[C@H](CO)[C@@H](O)[C@H](O)[C@H]2O)[C@H](O)[C@H]1O [n-nonyl-β-D-thiomaltopyranoside]
- influence of surfactant on incorporation of [3H]GalNAc [1]: particularly efficient incorporation

Molecule: Sucrose monolaurate
- influence of surfactant on incorporation of [3H]GalNAc [1]: particularly efficient incorporation

Molecule: ClC(Cl)Cl [chloroform, Chloroform]
- incorporation of [3H]GalNAc in the polymer fraction, dependence on chloroform concentration (chloroform concentration more than 0% to less than 5% (tested 0, 0.5, 1.0, 2.0, 5.0, 10.0%), FIG. 6): promoted
- influence of organic solvent on incorporation of [3H]GalNAc (organic solvent final concentration 1%, FIG. 5): promoted the incorporation

Molecule: polyoxyethylene octadecyl amine [Nymeen S-215]
- incorporation of [3H]GalNAc into the polymer fraction (ratio of incorporated to total radioactivity) (surfactant concentration 0.4% or more at the time of the enzyme reaction, 30° C., 15 hours, FIG. 1): about 37%
- incorporation of used [3H]GalNAc into the polymer fraction (surfactant final concentration 0.4%, Example 4, reconfirmation): about 37%
